This is an account of results in US20260042755A1, “GPR6 INVERSE AGONISTS” (MapLight Therapeutics, Inc., priority 2022, published 2026).

For one test, the target named is T1, GPR6 (Homo sapiens, UniProt P46095).
T1 construct: expressed in transfected cells; host or cells: CHO cells
Put plainly: GPR6 antagonist functional cAMP assay (LANCE Ultra cAMP TR-FRET, CHO cells stably expressing GPR6). The class given is cell-based. Put shortly:
(§1)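 Read-out was TR-FRET cAMP signal at 665 nm after 1 h at room temperature, following 45 min compound exposure at 37 °C. Assay buffer contained 0.1% BSA and 150 μM Ro 20-1724. Antagonist IC50s were fitted with a 4-parameter logistic against DMSO and reference controls.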

Another test has as its target T2, GPR3 (Homo sapiens, UniProt P46089).
T2 construct: expressed in transfected cells; host or cells: CHO cells
Put plainly: GPR3 antagonist functional cAMP assay (LANCE Ultra cAMP TR-FRET, CHO cells stably expressing GPR3). In kind it is cell-based. Put shortly:
as §1

[1] abbreviates: CHO cells stably expressing GPR6, cAMP assay (Example 24).
[2] abbreviates: CHO cells stably expressing GPR3, cAMP assay (Example 24).
The mark [3] stands for this setting: CHO cells stably expressing GPR6, cAMP assay.
The mark [4] stands for this setting: CHO cells stably expressing GPR3, cAMP assay.
The mark [5] stands for this setting: procedure as described in Example 24.

T2 sequence (P46089 whole entry, species assumed): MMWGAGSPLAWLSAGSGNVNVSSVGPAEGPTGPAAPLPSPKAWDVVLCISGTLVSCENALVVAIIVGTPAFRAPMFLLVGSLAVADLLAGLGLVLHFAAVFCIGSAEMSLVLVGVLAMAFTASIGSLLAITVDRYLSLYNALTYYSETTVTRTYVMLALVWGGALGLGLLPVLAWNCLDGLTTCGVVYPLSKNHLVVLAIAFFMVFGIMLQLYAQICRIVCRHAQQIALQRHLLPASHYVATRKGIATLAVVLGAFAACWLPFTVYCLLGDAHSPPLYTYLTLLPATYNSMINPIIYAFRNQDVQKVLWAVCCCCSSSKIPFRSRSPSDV
T1 sequence (P46095 whole entry): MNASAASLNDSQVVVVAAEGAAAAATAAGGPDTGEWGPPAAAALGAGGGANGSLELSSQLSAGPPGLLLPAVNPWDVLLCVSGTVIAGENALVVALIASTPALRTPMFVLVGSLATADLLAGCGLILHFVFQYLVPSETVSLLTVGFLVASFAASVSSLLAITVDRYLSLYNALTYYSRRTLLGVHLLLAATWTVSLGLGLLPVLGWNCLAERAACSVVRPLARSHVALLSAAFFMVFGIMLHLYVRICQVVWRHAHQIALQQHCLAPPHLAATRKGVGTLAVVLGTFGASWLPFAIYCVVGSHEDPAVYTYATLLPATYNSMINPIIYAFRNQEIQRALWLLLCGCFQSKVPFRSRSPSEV

With `Cn1cc(-c2nc3cn(C)c(=O)cc3nc2N2CCC(Oc3ccc(F)cc3F)CC2)cn1` [Compound 447, 2-[4-(2,4-difluorophenoxy)piperidin-1-yl]-6-methyl-3-(1-methyl-1H-pyrazol-4-yl)-6H,7H-pyrido[3,4-b]pyrazin-7-one], the IC50 against GPR6 (setting [1]) and at GPR3 (setting [2]) was 1000 to 30000 nM each time.
In the case of `CC(=O)N1CCc2nc(N3CCC(C(O)c4ccc(F)cc4F)CC3)c(-c3cnn(C)c3)nc2C1` (stereo not drawn) [Compound 545, 1-(2-{4-[(2,4-difluorophenyl)hydroxymethyl]-1-piperidyl}-3-(1-methyl-4-pyrazolyl)-5,6,7,8-tetrahydro-1,4,6-triaza-6-naphthyl)-1-ethanone], the IC50 against GPR6 (setting [3]) fell in the range of 100 to 1000 nM; at GPR3 (setting [4]), 1000 to 30000 nM.
On to `CC(=O)N1CCc2nc(N3CCN(Cc4ccc(OC(F)(F)F)cc4)CC3)c(-c3cnn(C)c3)nc2C1` [Compound 359, 1-[3-(1-methyl-1H-pyrazol-4-yl)-2-(4-{[4-(trifluoromethoxy)phenyl]methyl}piperazin-1-yl)-5H,6H,7H,8H-pyrido [3,4-b]pyrazin-6-yl]ethan-1-one], for which the IC50 against GPR6 (procedure of Example 24) and against GPR3 (procedure of Example 24) was 1000 to 30000 nM each time.
For the compound `CC(=O)N1CCc2nc(N3CCC(Oc4ccc(F)cc4C#N)CC3)c(-c3cnn(C)c3)nc2C1` [Compound 497, 2-{1-[6-acetyl-3-(1-methyl-4-pyrazolyl)-5,6,7,8-tetrahydro-1,4,6-triaza-2-naphthyl]-4-piperidyloxy}-5-fluorobenzonitrile], the IC50 is 100 to 1000 nM at GPR6 (setting [3]) and 1000 to 30000 nM on GPR3 (setting [4]).
As for `CC(=O)N1CCc2nc(N3CCC(Oc4ccc(F)cc4F)CC3)c(-c3cn[nH]c3C(C)C)nc2C1` [Compound 31, 1-{2-[4-(2,4-difluorophenoxy)piperidin-1-yl]-3-[5-(propan-2-yl)-1H-pyrazol-4-yl]-5H,6H,7H,8H-pyrido[3,4-b]pyrazin-6-yl}ethan-1-one], the IC50 at GPR6 (setting [5]) and at GPR3 (setting [5]) was 1000 to 30000 nM in each case.
Regarding `CC(C)(O)[C@H](O)c1cc2nc(N3CCC(Oc4ccc(F)cc4F)CC3)c(-c3cnn(C(F)F)c3)nc2cn1` (single isomer, unassigned) [Compound 554], the IC50 against GPR6 (setting [3]) was less than 100 nM; against GPR3 (setting [4]), 1000 to 30000 nM.
On to `CC(C)(O)C(C)(O)c1cc2nc(N3CCN(Cc4ccc(F)cc4F)CC3)c(-c3cnn(CF)c3)nc2cn1` (stereo not drawn) [Compound 607, 2-(2-{4-[(2,4-difluorophenyl)methyl]-1-piperazinyl}-3-[1-(fluoromethyl)-4-pyrazolyl]-1,4,6-triaza-7-naphthyl)-3-methyl-2,3-butanediol], for which the values for the IC50 against GPR6 (setting [3]) and against GPR3 (setting [4]) were 100 to 1000 nM and 1000 to 30000 nM, respectively.
Regarding `[2H]C([2H])([2H])C([2H])([2H])n1cc(-c2nc3c(nc2N2CCC(Oc4ccc(F)cc4F)CC2)CCN(C(C)=O)C3)cn1` [Compound 406, 1-{2-[4-(2,4-difluorophenoxy)piperidin-1-yl]-3-{1-[(1,1,2,2,2-2H5)ethyl]-1H-pyrazol-4-yl}-5H,6H,7H,8H-pyrido[3,4-b]pyrazin-6-yl}ethan-1-one], the IC50 on GPR6 (setting [1]) was less than 100 nM; at GPR3 (setting [2]), 1000 to 30000 nM.
Regarding `Cn1cc(-c2nc3c(Cl)nccc3nc2N2CCC(Oc3ccc(F)cc3F)CC2)cn1` [Compound 328, 1-[5-chloro-3-(1-methyl-1H-pyrazol-4-yl)pyrido[3,4-b]pyrazin-2-yl]-4-(2,4-difluorophenoxy)piperidine], the IC50 against GPR6 (procedure of Example 24) was in the range of 100 to 1000 nM; against GPR3 (procedure of Example 24), 1000 to 30000 nM.
For the compound `CC(=O)N1CCc2nc(-c3cn[nH]c3)c(N3CCC(Oc4ccc(F)cc4F)CC3)nc2C1` [Compound 115, 1-{3-[4-(2,4-difluorophenoxy)piperidin-1-yl]-2-(1H-pyrazol-4-yl)-5H,6H,7H,8H-pyrido[3,4-b]pyrazin-6-yl}ethan-1-one], the IC50 against GPR6 (setting [1]) was 100 to 1000 nM; against GPR3 (setting [2]), 1000 to 30000 nM.
As to `COCCN1CCc2nc(N3CCC(Oc4ccc(F)cc4F)CC3)c(-c3cnn(C4CCCCO4)c3)nc2C1` (stereo not drawn) [Compound 142, 4-(2,4-difluorophenoxy)-1-[6-(2-methoxyethyl)-3-[1-(oxan-2-yl)-1H-pyrazol-4-yl]-5H,6H,7H,8H-pyrido[3,4-b]pyrazin-2-yl]piperidine], the IC50 at GPR6 (setting [1]) and against GPR3 (setting [2]) was 1000 to 30000 nM throughout.
Consider `Cn1cc(-c2nc3cnc(CCO)cc3nc2N2CCC(Oc3ccc(F)cc3F)CC2)cn1` [Compound 468, 2-{2-[4-(2,4-difluorophenoxy)piperidin-1-yl]-3-(1-methyl-1H-pyrazol-4-yl)pyrido[3,4-b]pyrazin-7-yl}ethan-1-ol], for which the IC50 on GPR6 (setting [1]) lay within 100 to 1000 nM; against GPR3 (setting [2]), 1000 to 30000 nM.
On to `CC(=O)N1CCc2nc(N3CCCC(Oc4cccc(F)c4)C3)c(-c3cnn(C)c3)nc2C1` (stereo not drawn) [Compound 337, 1-{2-[3-(3-fluorophenoxy)piperidin-1-yl]-3-(1-methyl-1H-pyrazol-4-yl)-5H,6H,7H,8H-pyrido[3,4-b]pyrazin-6-yl}ethan-1-one], for which the IC50 was not below 30000 nM on GPR6 (procedure of Example 24) and 1000 to 30000 nM against GPR3 (procedure of Example 24).
The matching figures for `CC(=O)OC1CCN(c2nc3c(nc2-c2cnn(C)c2)CN(C(C)=O)CC3)C1` (stereo not drawn) [Compound 315, 1-[6-acetyl-3-(1-methyl-1H-pyrazol-4-yl)-5H,6H,7H,8H-pyrido[3,4-b]pyrazin-2-yl]pyrrolidin-3-yl acetate]: not below 30000 nM and 100 to 1000 nM.
On to `Fc1ccc(OC2CCN(c3nc4ccncc4nc3-c3cnc[nH]3)CC2)c(F)c1` [Compound 54, 4-(2,4-difluorophenoxy)-1-[3-(1H-imidazol-5-yl)pyrido[3,4-b]pyrazin-2-yl]piperidine], for which the IC50 at GPR6 (setting [5]) and against GPR3 (setting [5]) was 1000 to 30000 nM throughout.
As to `CC(=O)N1CCc2nc(N3CCC(Oc4ccc(F)cc4F)CC3)c(-c3ncn[nH]3)nc2C1` [Compound 1, 1-{2-[4-(2,4-difluorophenoxy)piperidin-1-yl]-3-(1H-1,2,4-triazol-5-yl)-5H,6H,7H,8H-pyrido[3,4-b]pyrazin-6-yl}ethan-1-one], the IC50 at GPR6 (setting [5]) is 1000 to 30000 nM; on GPR3 (setting [5]), 100 to 1000 nM.
Take `COc1ccc(CN2CCN(c3nc4c(nc3-c3cnn(C)c3)CN(C(C)=O)CC4)CC2)c(OC)c1` [Compound 322, 1-(2-{4-[(2,4-dimethoxyphenyl)methyl]piperazin-1-yl}-3-(1-methyl-1H-pyrazol-4-yl)-5H,6H,7H,8H-pyrido[3,4-b]pyrazin-6-yl)ethan-1-one]: the IC50 on GPR6 (procedure of Example 24) is not below 30000 nM; on GPR3 (procedure of Example 24) it was 1000 to 30000 nM.
As for `CCn1cc(-c2nc3cnc(C(O)C(C)(C)O)cc3nc2N2CCC(Oc3cc(Cl)ccc3Cl)CC2)cn1` (stereo not drawn) [Compound 441, 1-{2-[4-(2,5-dichlorophenoxy)piperidin-1-yl]-3-(1-ethyl-1H-pyrazol-4-yl)pyrido[3,4-b]pyrazin-7-yl}-2-methylpropane-1,2-diol], the IC50 was 100 to 1000 nM at GPR6 (setting [1]) and 1000 to 30000 nM at GPR3 (setting [2]).
On to `COc1ccc(OC2CCN(c3nc4c(nc3-c3cnn(C)c3)CN(C(C)=O)CC4)CC2)cc1` [Compound 425, 1-{2-[4-(4-methoxyphenoxy)piperidin-1-yl]-3-(1-methyl-1H-pyrazol-4-yl)-5H,6H,7H,8H-pyrido[3,4-b]pyrazin-6-yl}ethan-1-one], for which the IC50 against GPR6 (setting [1]) and against GPR3 (setting [2]) was 1000 to 30000 nM throughout.
With `CC(=O)N1CCc2nc(N3CCN(Cc4cscn4)CC3)c(-c3cnn(C)c3)nc2C1` [Compound 516, 1-[3-(1-methyl-4-pyrazolyl)-2-{4-[(1,3-thiazol-4-yl)methyl]-1-piperazinyl}-5,6,7,8-tetrahydro-1,4,6-triaza-6-naphthyl]-1-ethanone], the values for the IC50 on GPR6 (setting [3]) and at GPR3 (setting [4]) were 1000 to 30000 nM and not below 30000 nM, respectively.
As to `CCn1cc(-c2nc3c(nc2N2CCC(Oc4ccc(F)cc4F)CC2)CCN(C(=O)C(C)(C)O)C3)cn1` [Compound 276, 1-{2-[4-(2,4-difluorophenoxy)piperidin-1-yl]-3-(1-ethyl-1H-pyrazol-4-yl)-5H,6H,7H,8H-pyrido [3,4-b]pyrazin-6-yl}-2-hydroxy-2-methylpropan-1-one], the IC50 against GPR6 (procedure of Example 24) was less than 100 nM; against GPR3 (procedure of Example 24) it was 100 to 1000 nM.
For the compound `CC(C)(O)[C@@H](O)c1cc2nc(N3CCC(Oc4ccc(F)cc4F)CC3)c(-c3cnn(C4CC4)c3)nc2cn1` (single isomer, unassigned) [Compound 573], the IC50 against GPR6 (setting [3]) was 100 to 1000 nM; against GPR3 (setting [4]) it was 1000 to 30000 nM.
Take `CCOc1cncc(-c2nc3c(nc2N2CCC(Oc4ccc(F)cc4F)CC2)CCN(C(C)=O)C3)n1` [Compound 233, 1-{2-[4-(2,4-difluorophenoxy)piperidin-1-yl]-3-(6-ethoxypyrazin-2-yl)-5H,6H,7H,8H-pyrido[3,4-b]pyrazin-6-yl}ethan-1-one]: the IC50 at GPR6 (setting [1]) and at GPR3 (setting [2]) was 1000 to 30000 nM throughout.
Turning to `CC(=O)N1CCc2nc(N3CCC([C@@H](F)c4ccc(F)cc4F)CC3)c(-c3cnn(C)c3)nc2C1` (single isomer, unassigned) [Compound 659], the IC50 is less than 100 nM against GPR6 (procedure of Example 24) and 100 to 1000 nM against GPR3 (procedure of Example 24).
As to `Cn1cc(-c2nc3cnc(CC(O)CO)cc3nc2N2CCC(Oc3ccc(F)cc3F)CC2)cn1` (stereo not drawn) [Compound 377, 3-(2-(4-(2,4-difluorophenoxy)piperidin-1-yl)-3-(1-methyl-1H-pyrazol-4-yl)pyrido[3,4-b]pyrazin-7-yl)propane-1,2-diol], the IC50 at GPR6 (setting [1]) was in the range of 100 to 1000 nM; at GPR3 (setting [2]) it was 1000 to 30000 nM.
`CC(=O)Nc1cc2nc(N3CCN(Cc4ccc(F)cc4F)CC3)c(-c3cnn(C)c3)nc2cn1` [Compound 297, N-(2-{4-[(2,4-difluorophenyl)methyl]piperazin-1-yl}-3-(1-methyl-1H-pyrazol-4-yl)pyrido[3,4-b]pyrazin-7-yl)acetamide]: the IC50 at GPR6 (procedure of Example 24) and against GPR3 (procedure of Example 24) was 1000 to 30000 nM in each case.
For the compound `Cn1cc(-c2nc3cc([C@H](O)C(C)(C)O)ncc3nc2N2CCC(=Cc3ccc(F)cc3F)CC2)cn1` (single isomer, unassigned) [Compound 764], the IC50 was less than 100 nM against GPR6 (procedure of Example 24) and 100 to 1000 nM against GPR3 (procedure of Example 24).
